The source of these data is patent US9637496B2, “Substituted 7-azabicycles and their use as orexin receptor modulators” (priority 2013, dated 2017).

Assay [1] deals with human orexin 2 receptor (Homo sapiens (Human), UniProt O43614). Put plainly: Human orexin 2 receptor radioligand binding ([3H]-EMPA competition, HEK293 membranes).
The target of assay [2] is human orexin 1 receptor (Homo sapiens (Human), UniProt O43613). Put plainly: Human orexin 1 receptor radioligand binding (competitive binding, CHO membranes).
The target in assay [3] is rat orexin 1 receptor (Rattus norvegicus (Rat), UniProt P56718). Put plainly: Rat orexin 1 receptor radioligand binding (competitive binding, HEK293 membranes).
The mark [4] stands for this setting: human orexin 2 receptor, Table 2, averages from between 2-20 runs, read-out: hOX2 Ki.
Setting [5] is: human orexin 1 receptor, Table 2, averages from between 2-20 runs, read-out: hOX1 Ki.
[6] abbreviates: rat orexin 1 receptor, Table 2, averages from between 2-20 runs, read-out: rOX1 Ki.
The mark [7] stands for this setting: Table 2, further testing, averages from 2-20 runs, read-out: hOX2 Ki.
[8] abbreviates: Table 2, further testing, averages from 2-20 runs, read-out: hOX1 Ki.
Where [9] appears, read: Table 2, further testing, averages from 2-20 runs, read-out: rOX1 Ki.

Like-named read-outs stand apart in the source and are kept apart here.

Sequence of human orexin 2 receptor (O43614 whole entry): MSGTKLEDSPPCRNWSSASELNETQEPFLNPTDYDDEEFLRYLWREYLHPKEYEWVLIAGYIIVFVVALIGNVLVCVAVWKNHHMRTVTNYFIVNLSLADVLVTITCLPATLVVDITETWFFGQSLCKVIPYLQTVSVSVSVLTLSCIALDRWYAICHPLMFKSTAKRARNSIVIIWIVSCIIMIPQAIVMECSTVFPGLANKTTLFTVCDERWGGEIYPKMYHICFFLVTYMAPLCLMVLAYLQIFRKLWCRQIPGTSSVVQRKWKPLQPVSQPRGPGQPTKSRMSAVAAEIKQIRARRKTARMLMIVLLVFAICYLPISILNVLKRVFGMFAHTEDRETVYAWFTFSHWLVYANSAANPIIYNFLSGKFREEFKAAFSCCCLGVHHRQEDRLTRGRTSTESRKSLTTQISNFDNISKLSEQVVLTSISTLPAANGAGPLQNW
Sequence of human orexin 1 receptor (O43613 whole entry): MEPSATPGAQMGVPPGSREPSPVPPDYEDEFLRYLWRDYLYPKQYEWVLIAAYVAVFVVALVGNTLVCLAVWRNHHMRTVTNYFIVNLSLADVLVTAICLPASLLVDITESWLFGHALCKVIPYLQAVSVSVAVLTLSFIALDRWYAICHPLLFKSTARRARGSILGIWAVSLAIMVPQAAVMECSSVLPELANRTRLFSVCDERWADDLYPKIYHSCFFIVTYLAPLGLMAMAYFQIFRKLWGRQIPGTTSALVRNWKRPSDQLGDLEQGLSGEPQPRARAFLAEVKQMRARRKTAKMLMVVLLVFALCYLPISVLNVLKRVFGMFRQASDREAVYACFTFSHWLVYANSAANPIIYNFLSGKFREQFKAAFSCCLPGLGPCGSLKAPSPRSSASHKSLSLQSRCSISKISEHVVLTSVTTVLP
Sequence of rat orexin 1 receptor (P56718 whole entry): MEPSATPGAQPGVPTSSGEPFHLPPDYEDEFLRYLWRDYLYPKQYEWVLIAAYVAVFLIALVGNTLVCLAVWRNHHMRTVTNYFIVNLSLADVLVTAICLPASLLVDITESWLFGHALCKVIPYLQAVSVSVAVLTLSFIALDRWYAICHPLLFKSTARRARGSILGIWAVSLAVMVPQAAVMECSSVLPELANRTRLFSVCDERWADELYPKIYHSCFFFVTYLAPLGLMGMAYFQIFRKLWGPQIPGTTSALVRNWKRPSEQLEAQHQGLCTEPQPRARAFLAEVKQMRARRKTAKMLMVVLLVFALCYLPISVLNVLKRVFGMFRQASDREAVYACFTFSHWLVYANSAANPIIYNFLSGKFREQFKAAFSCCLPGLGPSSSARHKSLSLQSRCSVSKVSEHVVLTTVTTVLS

With `O=C(c1cccc(F)c1-n1nccn1)N1[C@@H]2CC[C@H]1[C@H](Nc1ccc(C(F)F)cn1)C2` [Example 388, ((1S,2R,4R)-2-((5-(difluoromethyl)pyridin-2-yl)amino)-7-azabicyclo[2.2.1]heptan-7-yl)(3-fluoro-2-(2H-1,2,3-triazol-2-yl)phenyl)methanone], the inhibition constant Ki – broadly, the dissociation constant of the complex between target and ligand, obtained from inhibition or displacement – in assay [1] (setting [4]) came to 1100 nM; in assay [2] (setting [5]), 118 nM; in assay [3] (setting [6]), 130 nM.
The matching figures for `Cc1noc(-c2cc(F)ccc2C(=O)N2[C@@H]3CC[C@H]2[C@H](Nc2cnc(C(F)(F)F)cn2)C3)n1` [Example 412, (4-fluoro-2-(3-methyl-1,2,4-oxadiazol-5-yl)phenyl)((1S,2R,4R)-2-((5-(trifluoromethyl)pyrazin-2-yl)amino)-7-azabicyclo[2.2.1]heptan-7-yl)methanone]: 4800 nM, 329 nM and 126 nM.
`Cc1cccc(C(=O)N2C3CCC2C(Oc2ccc(C(F)(F)F)cn2)C3)c1-c1ncco1` (racemic) [Example 435]: the inhibition constant Ki in assay [1] came out at 520 nM; in assay [2] it was 29 nM; in assay [3] it was 50 nM.
On to `O=C(c1c(F)cccc1-c1ncccn1)N1[C@@H]2CC[C@H]1[C@H](Nc1ccc(C(F)(F)F)cn1)C2` [Example 372, (2-fluoro-6-(pyrimidin-2-yl)phenyl)((1S,2R,4R)-2-((5-(trifluoromethyl)pyridin-2-yl)amino)-7-azabicyclo[2.2.1]heptan-7-yl)methanone], for which the figures for the Ki in assay [1] (setting [4]), in assay [2] (read-out: hOX1 Ki) and in assay [3] (read-out: rOX1 Ki) were 420 nM, 13 nM and 19 nM, respectively.
Take `O=C(c1cccc(F)c1-c1ncccn1)N1[C@@H]2CC[C@H]1[C@H](Nc1cnc(C(F)(F)F)cn1)C2` [Example 238, (3-fluoro-2-(pyrimidin-2-yl)phenyl)((1S,2R,4R)-2-((5-(trifluoromethyl)pyrazin-2-yl)amino)-7-azabicyclo[2.2.1]heptan-7-yl)methanone]: the Ki is 763 nM in assay [1], 15 nM in assay [2] and 15 nM in assay [3].
Consider `Cc1cnc(C(=O)N2[C@@H]3CC[C@H]2[C@H](Nc2ccc(C(F)(F)F)cn2)C3)c(-c2ncccn2)c1` [Example 380, (5-methyl-3-(pyrimidin-2-yl)pyridin-2-yl)((1S,2R,4R)-2-((5-(trifluoromethyl)pyridin-2-yl)amino)-7-azabicyclo[2.2.1]heptan-7-yl)methanone], for which the Ki was found to be 8500 nM in assay [1] (setting [4]), 48 nM in assay [2] (read-out: hOX1 Ki) and 28 nM in assay [3] (read-out: rOX1 Ki).
As for `O=C(c1cccc(F)c1-c1ncccn1)N1C2CCC1C(Nc1ccc(Br)cn1)C2` [Example 303, ((1S,2R,4R)-2-((5-bromopyridin-2-yl)amino)-7-azabicyclo[2.2.]heptan-7-yl)(3-fluoro-2-(pyrimidin-2-yl)phenyl)methanone], the Ki in assay [1] (setting [4]) worked out at 1300 nM; in assay [2] (read-out: hOX1 Ki) it was 16 nM; in assay [3] (read-out: rOX1 Ki) it was 22 nM.
The matching figures for `O=C(c1cccc(Cl)c1-c1ncccn1)N1[C@@H]2CC[C@H]1[C@H](Nc1ccc(C(F)(F)F)cn1)C2` [Example 376, (3-chloro-2-(pyrimidin-2-yl)phenyl)((1S,2R,4R)-2-((5-(trifluoromethyl)pyridin-2-yl)amino)-7-azabicyclo[2.2.1]heptan-7-yl)methanone]: 110 nM, 4 nM and 10 nM.
As for `O=C(c1c(F)cccc1-c1ncccn1)N1[C@@H]2CC[C@H]1[C@H](Nc1ncc(C(F)(F)F)cc1F)C2` [Example 459, ((1S,2R,4R)-2-((3-fluoro-5-(trifluoromethyl)pyridin-2-yl)amino)-7-azabicyclo[2.2.1]heptan-7-yl)(2-fluoro-6-(pyrimidin-2-yl)phenyl)methanone], the Ki in assay [1] (setting [7]) was 530 nM; in assay [2] (setting [8]), 71 nM; in assay [3] (setting [9]) it was 26 nM.
For the compound `O=C(c1cccc(F)c1-c1ncco1)N1C2CCC1C(Oc1ccc(C(F)(F)F)cn1)C2` (racemic) [Example 436], the Ki worked out at 3500 nM in assay [1], 116 nM in assay [2] (setting [5]) and 143 nM in assay [3] (setting [6]).
Turning to `O=C(c1cccc(F)c1-c1ncccn1)N1[C@@H]2CC[C@H]1[C@H](Nc1ccc(C(F)(F)F)cn1)C2` [Example 279, (3-fluoro-2-(pyrimidin-2-yl)phenyl)((1S,2R,4R)-2-((5-(trifluoromethyl)pyridin-2-yl)amino)-7-azabicyclo[2.2.1]heptan-7-yl)methanone], the Ki in assay [1] was found to be 990 nM; in assay [2] it was 9 nM; in assay [3], 18 nM.
Regarding `O=C(c1cc(F)ccc1-n1nccn1)N1[C@@H]2CC[C@H]1[C@H](Nc1ccc(C(F)(F)F)cn1)C2` [Example 369, (5-fluoro-2-(2H-1,2,3-triazol-2-yl)phenyl)((1S,2R,4R)-2-((5-(trifluoromethyl)pyridin-2-yl)amino)-7-azabicyclo[2.2.1]heptan-7-yl)methanone], the Ki was 629 nM in assay [1] (setting [4]), 45 nM in assay [2] (setting [5]) and 67 nM in assay [3] (setting [6]).
On to `Cc1cccc(C(=O)N2[C@@H]3CC[C@H]2[C@H](Nc2ccc(C#N)cn2)C3)c1-c1ncccn1` [Example 393, 6-(((1S,2R,4R)-7-(3-methyl-2-(pyrimidin-2-yl)benzoyl)-7-azabicyclo[2.2.1]heptan-2-yl)amino)nicotinonitrile], for which the inhibition constant Ki in assay [1] (setting [4]) amounted to 8300 nM; in assay [2] (setting [5]), 323 nM; in assay [3] (setting [6]) it was 500 nM.
For the compound `Cc1cccc(C(=O)N2[C@@H]3CC[C@H]2[C@H](Nc2ncc(Br)cn2)C3)c1-n1nccn1` [Example 318, ((1S,2R,4R)-2-((5-bromopyrimidin-2-yl)amino)-7-azabicyclo[2.2.1]heptan-7-yl)(3-methyl-2-(2H-1,2,3-triazol-2-yl)phenyl)methanone], the Ki in assay [1] (setting [4]) was 768 nM; in assay [2] (read-out: hOX1 Ki), 13 nM; in assay [3] (read-out: rOX1 Ki), 9 nM.
In the case of `O=C(c1cccc(F)c1-c1ncc(F)cn1)N1[C@@H]2CC[C@H]1[C@H](Nc1ccc(C(F)(F)F)cn1)C2` [Example 375, (3-fluoro-2-(5-fluoropyrimidin-2-yl)phenyl)((1S,2R,4R)-2-((5-(trifluoromethyl)pyridin-2-yl)amino)-7-azabicyclo[2.2.1]heptan-7-yl)methanone], the figures for the Ki in assay [1] (setting [4]), in assay [2] (read-out: hOX1 Ki) and in assay [3] (read-out: rOX1 Ki) were 2200 nM, 89 nM and 49 nM, respectively.
The matching figures for `Cc1cccc(C(=O)N2[C@@H]3CC[C@H]2[C@H](Nc2cnc(C(F)(F)F)cn2)C3)c1-c1ncc(F)cn1` [Example 399, (2-(5-fluoropyrimidin-2-yl)-3-methylphenyl)((1S,2R,4R)-2-((5-(trifluoromethyl)pyrazin-2-yl)amino)-7-azabicyclo[2.2.1]heptan-7-yl)methanone]: 300 nM, 9 nM and 10 nM.
For the compound `O=C(c1ncccc1-c1ncccn1)N1[C@@H]2CC[C@H]1[C@H](Nc1ncc(C(F)(F)F)cc1F)C2` [Example 458, ((1S,2R,4R)-2-((3-fluoro-5-(trifluoromethyl)pyridin-2-yl)amino)-7-azabicyclo[2.2.1]heptan-7-yl)(3-(pyrimidin-2-yl)pyridin-2-yl)methanone], the Ki in assay [1] (setting [7]) was 932 nM; in assay [2] (setting [8]) it was 45 nM; in assay [3] (setting [9]) it was 46 nM.
For the compound `O=C(c1ccccc1-c1ncccn1)N1C2CCC1C(Oc1ccc(C(F)(F)F)cn1)C2` (racemic) [Example 432], the results for the Ki in assay [1] (setting [4]), in assay [2] (setting [5]) and in assay [3] (setting [6]) were 6000 nM, 307 nM and 147 nM, respectively.
With `O=C(c1cccc(F)c1-n1nccn1)N1[C@@H]2CC[C@H]1[C@H](Nc1ncc(C(F)(F)F)cc1F)C2` [Example 449, (3-fluoro-2-(2H-1,2,3-triazol-2-yl)phenyl)((1S,2R,4R)-2-((3-fluoro-5-(trifluoromethyl)pyridin-2-yl)amino)-7-azabicyclo[2.2.1]heptan-7-yl)methanone], the figures for the Ki in assay [1] (setting [7]), in assay [2] (setting [8]) and in assay [3] (setting [9]) were 873 nM, 41 nM and 34 nM, respectively.
As for `Cc1cccc(C(=O)N2[C@@H]3CC[C@H]2[C@H](Nc2ncc(C(F)(F)F)cc2F)C3)c1-c1ncccn1` [Example 462, ((1S,2R,4R)-2-((3-fluoro-5-(trifluoromethyl)pyridin-2-yl)amino)-7-azabicyclo[2.2.1]heptan-7-yl)(3-methyl-2-(pyrimidin-2-yl)phenyl)methanone], the Ki in assay [1] (setting [7]) is 339 nM; in assay [2] (setting [8]), 31 nM; in assay [3] (setting [9]), 18 nM.
Take `N#Cc1ccc(N[C@@H]2C[C@H]3CC[C@@H]2N3C(=O)c2cccc(F)c2-c2ncccn2)nc1` [Example 392, 6-(((1S,2R,4R)-7-(3-fluoro-2-(pyrimidin-2-yl)benzoyl)-7-azabicyclo[2.2.1]heptan-2-yl)amino)nicotinonitrile]: the Ki in assay [1] (setting [4]) is above 10000 nM; in assay [2] (setting [5]), 1400 nM; in assay [3] (setting [6]), 1000 nM.
The matching figures for `O=C(c1ccc(F)cc1-c1ncccn1)N1C2CCC1C(Oc1ccc(C(F)(F)F)cn1)C2` (racemic) [Example 430]: above 10000 nM, 300 nM and 245 nM.
